Like-named read-outs stand apart in the source and are kept apart here.

What all share (format): in vivo
One test relates to Radopholus similis. In words: Nematode control, nodules per plant: Radopholus similis. As to conditions: 1 μM foliar application every 5 days, evaluation 35 days after, control 45. In a few lines: (§1)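 Each compound was dissolved in ethanol, then diluted with water to 1 μM. Only the leaves were sprayed, with applications repeated every 5 days on ten plants per treatment. After 35 days, nodules per plant were quantified.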

Another test has as its system Phytophthora parasitica. The test can be described thus: Control of Phytophthora parasitica disease in tobacco (Pp-Nt). The settings on record: 1 μM spraying every 24 hours for one week, water control 91.
Another test relates to Alternaria solani. The test can be described thus: Control of Alternaria solani disease in tomato (As-SI). As to conditions: 1 μM spraying every 24 hours for one week, water control 68. Put shortly:
(§2)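 Plants were inoculated first, then sprayed with compound at 1 μM every 24 h for one week, with 50 plants per treatment and water controls. Read-outs: lesion diameter for Botrytis, mortality for Nocardia, % symptomatic leaves for Alternaria.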

In test [1] the test system is Botrytis cinerea. In words: Control of Botrytis cinerea disease in tomato (Bc-SI). The settings on record: 1 μM spraying every 24 hours for one week, water control 7.4. In a few lines:
as §2

In the next test the test system is Pratylenchus coffeae. In words: Nematode control, nodules per plant: Pratylenchus coffeae. As to conditions: 1 μM foliar application every 5 days, evaluation 35 days after, control 42. Put shortly: as §1
The test system of test [2] is Botrytis cinerea. The test can be described thus: Control of Botrytis cinerea disease in Arabidopsis (Bc-At). The settings on record: 1 μM spraying every 24 hours for one week, water control 8.7. In a few lines:
as §2

Test [3] deals with Rhizoctonia solani. In words: Control of Rhizoctonia solani disease in tobacco (Rs-Nt). The settings on record: 1 μM spraying every 24 hours for one week, water control 87.
Test [4] relates to Botrytis cinerea. The test can be described thus: Control of Botrytis cinerea disease in tobacco (Bc-Nt). As to conditions: 1 μM spraying every 24 hours for one week, water control 6.7. In a few lines:
as §2

A further test concerns Nocardia sp. In words: Control of Nocardia sp disease in tobacco (N-Nt). The settings on record: 1 μM spraying every 24 hours for one week, water control 58. Put shortly: as §2
For test [5], the system named is Rhizoctonia solani. In words: Control of Rhizoctonia solani disease in tomato (Rs-SI). The settings on record: 1 μM spraying every 24 hours for one week, water control 96.
A further test concerns Meloidogyne incognita. The test can be described thus: Nematode control, nodules per plant: Meloidogyne incognita. The settings on record: 1 μM foliar application every 5 days, evaluation 35 days after, control 34. Put shortly:
as §1

Test [6] relates to Candidatus 'Liberibacter asiaticus'. As to conditions: spraying every 15 days, 12 months after treatment, Citrus sinensis with HLB.

Turning to `Cc1c(CCC(=O)NCC(O)CO)c(=O)oc2cc3occ(C4CCCC4)c3cc12` (stereo not drawn) [IK, 3-{6-cyclopentyl-4-methyl-2-oxo-2H-furo[3,2-g]chromen-3-yl}-N-(2,3-dihydroxypropyl)propanamide], the “Rs: number of nodules per plant” value in the test on Radopholus similis turned out to be 0. Also, in the test with Phytophthora parasitica, the “Pp-Nt: percentage of mortality” value was determined as 0%. In the test on Alternaria solani, the “As-SI: percentage of leaves with the disease symptoms” value (shortened to “As-SI: percentage of leaves”) was found to be 8%. For the same compound, the “Bc-SI: mean of the diameter of the lesion” value (“Bc-SI: mean” below) with Botrytis cinerea [1] turned out to be 0.8 mm. The “Pc: number of nodules per plant” value with Pratylenchus coffeae was 15. In addition, in the test with Botrytis cinerea [2], the “Bc-At: mean of the diameter of the lesion” value (from here on “Bc-At: mean”) is listed as 2.4 mm. Also, the “Rs-Nt: percentage of mortality” value with Rhizoctonia solani [3] came out at 0%. Moreover, the “Bc-Nt: mean of the diameter of the lesion” value (shortened to “Bc-Nt: mean”) with Botrytis cinerea [4] turned out to be 1.5 mm. Moreover, the “N-Nt: percentage of mortality” value with Nocardia sp is given as 1%. Further, the “Rs-SI: percentage of mortality” value in the test on Rhizoctonia solani [5] worked out at 2%. The “Mi: number of nodules per plant” value in the test on Meloidogyne incognita is 0. The “Titers of the bacterium” value in test [6] (0.001 μM) is listed as 435 copies per reaction; in test [6] (0.01 μM), 0 copies per reaction; in test [6] (1 μM), 0 copies per reaction; in test [6] (5 μM), 45 copies per reaction; in test [6] (10 μM), 6521 copies per reaction.

With `Cc1c(CCC(=O)NCC(O)CO)c(=O)oc2cc3occ(-c4ccc5ccccc5c4)c3cc12` (stereo not drawn) [IL, N-(2,3-dihydroxypropyl)-3-[4-methyl-6-(naphthalen-2-yl)-2-oxo-2H-furo[3,2-g]chromen-3-yl]propanamide], the “Rs: number of nodules per plant” value in the test on Radopholus similis is recorded as 0. In the test with Phytophthora parasitica, the “Pp-Nt: percentage of mortality” value is 0%. Besides, the “As-SI: percentage of leaves” value in the test on Alternaria solani is reported as 7%. Moreover, in the test with Botrytis cinerea [1], the “Bc-SI: mean” value is recorded as 1.2 mm. In the test on Pratylenchus coffeae, the “Pc: number of nodules per plant” value is on record as 0. Further, the “Bc-At: mean” value in the test with Botrytis cinerea [2] was 0.7 mm. Also, the “Rs-Nt: percentage of mortality” value with Rhizoctonia solani [3] was determined as 0%. Besides, the “Bc-Nt: mean” value in the test with Botrytis cinerea [4] stood at 0.9 mm. Moreover, in the test with Nocardia sp, the “N-Nt: percentage of mortality” value is listed as 0%. In addition, the “Rs-SI: percentage of mortality” value in the test on Rhizoctonia solani [5] was determined as 0%. Moreover, the “Mi: number of nodules per plant” value in the test on Meloidogyne incognita is on record as 0. The “Titers of the bacterium” value in test [6] (0.001 μM) was 578 copies per reaction; in [6] (0.01 μM), 0 copies per reaction; in test [6] (1 μM), 0 copies per reaction; in test [6] (5 μM), 78 copies per reaction; in test [6] (10 μM) it was 3574 copies per reaction.

For `Cc1c(CCC(=O)NCC(O)CO)c(=O)oc2cc3occc3cc12` (stereo not drawn) [IM, N-(2,3-dihydroxypropyl)-3-{4-methyl-2-oxo-2H-furo[3,2-g]chromen-3-yl}propanamide], in the test on Radopholus similis, the “Rs: number of nodules per plant” value was 0. Further, in the test with Phytophthora parasitica, the “Pp-Nt: percentage of mortality” value was found to be 0%. Further, the “As-SI: percentage of leaves” value in the test with Alternaria solani amounted to 5%. Further, the “Bc-SI: mean” value in the test with Botrytis cinerea [1] turned out to be 0.8 mm. For the same compound, the “Pc: number of nodules per plant” value in the test with Pratylenchus coffeae turned out to be 0. In addition, in the test on Botrytis cinerea [2], the “Bc-At: mean” value is reported as 1.2 mm. Besides, the “Rs-Nt: percentage of mortality” value in the test with Rhizoctonia solani [3] was found to be 0%. Also, the “Bc-Nt: mean” value in the test on Botrytis cinerea [4] stood at 0.3 mm. The “N-Nt: percentage of mortality” value in the test on Nocardia sp worked out at 0%. Moreover, the “Rs-SI: percentage of mortality” value in the test with Rhizoctonia solani [5] amounted to 1%. The “Mi: number of nodules per plant” value in the test on Meloidogyne incognita is 0. Also, the “Titers of the bacterium” value in [6] (0.001 μM) was 635 copies per reaction; in test [6] (0.01 μM) it was 0 copies per reaction; in [6] (1 μM) it was 0 copies per reaction; in test [6] (5 μM) it was 65 copies per reaction; in [6] (10 μM), 3541 copies per reaction.

Turning to `Cc1c(CCC(=O)NCC(O)CO)c(=O)oc2cc3occ(-n4cccc4)c3cc12` (stereo not drawn) [IN, N-(2,3-dihydroxypropyl)-3-[4-methyl-2-oxo-6-(1H-pyrrol-1-yl)-2H-furo[3,2-g]chromen-3-yl]propanamide], the “Rs: number of nodules per plant” value in the test with Radopholus similis is 3. Further, the “Pp-Nt: percentage of mortality” value in the test on Phytophthora parasitica is on record as 3%. For the same compound, in the test with Alternaria solani, the “As-SI: percentage of leaves” value is 7%. Further, the “Bc-SI: mean” value with Botrytis cinerea [1] is on record as 1.6 mm. The “Pc: number of nodules per plant” value in the test on Pratylenchus coffeae is 0. Also, the “Bc-At: mean” value in the test on Botrytis cinerea [2] is given as 1.1 mm. The “Rs-Nt: percentage of mortality” value with Rhizoctonia solani [3] turned out to be 0%. Besides, the “Bc-Nt: mean” value in the test on Botrytis cinerea [4] is given as 2.0 mm. Further, in the test with Nocardia sp, the “N-Nt: percentage of mortality” value turned out to be 0%. In addition, the “Rs-SI: percentage of mortality” value in the test with Rhizoctonia solani [5] was determined as 1%. In addition, the “Mi: number of nodules per plant” value in the test with Meloidogyne incognita turned out to be 0. In addition, the “Titers of the bacterium” value was determined as 524 copies per reaction in test [6] (0.001 μM); 0 copies per reaction in test [6] (0.01 μM); 0 copies per reaction in test [6] (1 μM); 54 copies per reaction in test [6] (5 μM); 2368 copies per reaction in [6] (10 μM).

On to `CC1CCN(C(=O)c2ccc(OC3CCN(CC(O)CO)CC3)cc2)C1` (stereo not drawn) [IVA, 3-(4-{4-[(3-methylpyrrolidin-1-yl)carbonyl]phenoxy}piperidin-1-yl)propane-1,2-diol], for which the “Rs: number of nodules per plant” value in the test on Radopholus similis turned out to be 0. Also, in the test on Phytophthora parasitica, the “Pp-Nt: percentage of mortality” value worked out at 0%. Further, the “As-SI: percentage of leaves” value in the test with Alternaria solani stood at 5%. Also, the “Bc-SI: mean” value with Botrytis cinerea [1] was 0.8 mm. Also, in the test on Pratylenchus coffeae, the “Pc: number of nodules per plant” value was 0. Further, the “Bc-At: mean” value in the test on Botrytis cinerea [2] came out at 2.4 mm. Besides, in the test on Rhizoctonia solani [3], the “Rs-Nt: percentage of mortality” value was determined as 0%. The “Bc-Nt: mean” value in the test on Botrytis cinerea [4] came out at 1.5 mm. For the same compound, the “N-Nt: percentage of mortality” value in the test with Nocardia sp stood at 0%. In the test on Rhizoctonia solani [5], the “Rs-SI: percentage of mortality” value turned out to be 1%. Further, the “Mi: number of nodules per plant” value in the test on Meloidogyne incognita is given as 0. Further, the “Titers of the bacterium” value in test [6] (0.001 μM) is reported as 598 copies per reaction; in test [6] (0.01 μM) it was 1 copies per reaction; in test [6] (1 μM), 5 copies per reaction; in test [6] (5 μM), 98 copies per reaction; in test [6] (10 μM), 6521 copies per reaction.

Consider `CC1CCN(C(=O)c2ccc(OC3CCN(CC(O)C(C)O)CC3)cc2)C1` (stereo not drawn) [IVB, 1-(4-{4-[(3-methylpyrrolidin-1-yl)carbonyl]phenoxy}piperidin-1-yl)butane-2,3-diol], for which the “Rs: number of nodules per plant” value in the test on Radopholus similis was 3. Besides, in the test on Phytophthora parasitica, the “Pp-Nt: percentage of mortality” value stood at 3%. Also, the “As-SI: percentage of leaves” value in the test with Alternaria solani came out at 7%. In addition, the “Bc-SI: mean” value in the test with Botrytis cinerea [1] is 1.2 mm. Besides, the “Pc: number of nodules per plant” value in the test with Pratylenchus coffeae worked out at 0. The “Bc-At: mean” value in the test with Botrytis cinerea [2] came out at 0.7 mm. In addition, the “Rs-Nt: percentage of mortality” value in the test on Rhizoctonia solani [3] worked out at 0%. In addition, in the test on Botrytis cinerea [4], the “Bc-Nt: mean” value came to 0.9 mm. Further, the “N-Nt: percentage of mortality” value with Nocardia sp came out at 0%. In the test on Rhizoctonia solani [5], the “Rs-SI: percentage of mortality” value was 1%. Also, the “Mi: number of nodules per plant” value in the test on Meloidogyne incognita is 0. The “Titers of the bacterium” value is 432 copies per reaction in [6] (0.001 μM); 8 copies per reaction in test [6] (0.01 μM); 4 copies per reaction in test [6] (1 μM); 43 copies per reaction in test [6] (5 μM); 3574 copies per reaction in [6] (10 μM).

The record behind these values is patent US11013235B2 (priority 2015, dated 2021).
